According to ChEMBL document CHEMBL1132432, “Urea-PETT compounds as a new class of HIV-1 reverse transcriptase inhibitors. 3. Synthesis and further structure-activity relationship studies of PETT analogues” (J Med Chem, 1999):

What was measured:
[1] = target: Human immunodeficiency virus type 1 reverse transcriptase (Human immunodeficiency virus 1) (UniProt Q72547); conditions: MT4
Description: Inhibitory activity against HIV-1 Asn 103 mutant in MT-4 cells.

[2] = target: Human immunodeficiency virus type 1 reverse transcriptase (Human immunodeficiency virus 1) (UniProt Q72547); conditions: MT4; remark: listed apart in the source
Description: Inhibitory activity against HIV-1 Cys 181 mutant in MT-4 cells.

[3] = target: Human immunodeficiency virus type 1 reverse transcriptase (Human immunodeficiency virus 1) (UniProt Q72547); conditions: MT4; remark: listed apart in the source
Description: Inhibitory activity against HIV-1 Ile 100 mutant in MT-4 cells.

[4] = target: Human immunodeficiency virus type 1 reverse transcriptase (Human immunodeficiency virus 1) (UniProt Q72547); conditions: MT4; remark: listed apart in the source
Description: Inhibition of wild type HIV-1 in MT-4 cell culture (human T cell line)

MT4 = experiment: Inhibitory activity against HIV-1 Wild Type in MT-4 cell culture (human T-cell line with 50% human AB serum); assay type: functional; conditions: read-out: ED50 (the source's name)
[5] = target: T1, Human immunodeficiency virus type 1 reverse transcriptase (Human immunodeficiency virus 1, UniProt Q72547); experiment: HIV-1 reverse transcriptase inhibitory activity against Asn103 mutant using (poly)rC600*(oligo)dGT as template primer.
[6] = target: T1, Human immunodeficiency virus type 1 reverse transcriptase; experiment: HIV-1 reverse transcriptase inhibitory activity against Cys181 mutant using (poly)rC600*(oligo)dGT as template primer.
[7] = target: T1, Human immunodeficiency virus type 1 reverse transcriptase; experiment: HIV-1 reverse transcriptase inhibitory activity against Ile 100 mutant using (poly)rC600*(oligo)dGT as template primer.
[8] = target: T1, Human immunodeficiency virus type 1 reverse transcriptase; experiment: HIV-1 reverse transcriptase inhibitory activity against Wild Type Reverse transcriptase using (poly)rC600*(oligo)dGT as template primer.

Row | SMILES | ED50 [1] [nM] | ED50 [2] [nM] | ED50 [3] [nM] | ED50 [4] [nM] | EC50 (MT4; Homo sapiens, MT4) [nM] | IC50 [5] [nM] | IC50 [6] [nM] | IC50 [7] [nM] | IC50 [8] [nM] | EC50 (MT4) [nM]
1 | CCC(=O)c1ccc(F)c(C2CC2NC(=O)Nc2ccc(Cl)cn2)c1O (stereo in doubt; 19) [listing 1 of 2 here] | 200 | 100 | 100 | 9 | – | – | – | – | – | –
2 | CC(C)Nc1cccnc1N1CCN(C(=O)c2cc3cc(NS(C)(=O)=O)ccc3[nH]2)CC1 [DELAVIRDINE] | – | – | – | – | 320 | – | – | – | – | –
3 | COc1ccc(OC)c(CCNC(=O)Nc2ccc(Cl)cn2)c1F | 1130 | > 5000 | 3800 | 28 | – | 224 | 140 | 140 | – | –
4 | CCC(=O)c1ccc(F)c(C2CC2NC(=O)Nc2ccc(Br)cn2)c1O (stereo in doubt; 18) [listing 1 of 2 here] | 358 | 95 | 53 | 12 | – | – | – | – | – | –
5 | CCC(=O)c1ccc(F)c(C2CC2NC(=O)Nc2ccc(Br)cn2)c1O (stereo in doubt; 17) [listing 1 of 2 here] | 80 | 69 | 100 | 8 | – | – | – | – | – | –
6 | CCC(=O)c1ccc(F)c(C2CC2NC(=O)Nc2ccc(Cl)cn2)c1O (stereo in doubt; 19) [listing 2 of 2 here] | – | – | – | – | 51 | 82 | 19 | 115 | 3.2 | –
7 | CCC(=O)c1ccc(F)c(C2CC2NC(=O)Nc2ccc(C#N)cn2)c1O (stereo not drawn) | 137 | 46 | 69 | 3 | – | 97 | 16 | 32 | 6.8 | –
8 | CCOc1ccc(F)c(CCNC(=O)Nc2ccc(Br)cn2)c1Cl | > 5000 | > 5000 | > 10000 | 70 | – | > 2400 | 240 | 1680 | – | –
9 | CCC(=O)c1ccc(F)c(C2CC2NC(=O)Nc2ccc(Cl)cn2)c1O (stereo in doubt; 20) [listing 1 of 2 here] | 470 | 100 | 75 | 13 | – | – | – | – | – | –
10 | CN(C)c1ccc(F)c(CCNC(=O)Nc2ccc(Br)cn2)c1F | > 20000 | > 20000 | > 20000 | 500 | – | > 2500 | 1500 | > 2500 | – | –
11 | COc1ccc(C(C)=O)c(F)c1CCNC(=O)Nc1ccc(Cl)cn1 | 3280 | > 20000 | > 20000 | 273 | – | > 2700 | 10100 | 11200 | 109 | –
12 | COc1ccc2c(c1)N(C(=O)OC(C)C)C(CSC)C(S)=N2 (stereo not drawn) | 500 | 73 | 72 | 9 | 320 | 56 | 9 | 9 | 8 | –
13 | CCC(=O)c1ccc(F)c(C2CC2NC(=O)Nc2ccc(Br)cn2)c1O (stereo in doubt; 17) [listing 2 of 2 here] | – | – | – | – | 58 | 83 | 16 | 171 | 3.8 | –
14 | CCC(=O)c1ccc(F)c(C2CC2NC(=O)Nc2ccc(Cl)cn2)c1O (stereo in doubt; 13) [listing 1 of 2 here] | 350 | 340 | 220 | 27 | – | – | – | – | – | –
15 | CCOc1ccc(F)c(C2CC2NC(=O)Nc2cc(Cl)cnn2)c1Cl (stereo not drawn) | > 5000 | 2300 | 4400 | 78 | – | > 2600 | 260 | 140 | 16 | –
16 | Cc1ccnc2c1NC(=O)c1cccnc1N2C1CC1 [NEVIRAPINE] | – | – | – | – | > 5000 | – | – | – | – | –
17 | CCC(=O)c1ccc(F)c(C2CC2NC(=O)Nc2ccc(Cl)cn2)c1O (stereo in doubt; 13) [listing 2 of 2 here] | – | – | – | – | – | 57 | 51 | 76 | 9 | –
18 | CCOc1ccc(Cl)c(C2CC2NC(=O)Nc2cc(Cl)cnn2)c1F (stereo not drawn) | > 5000 | > 5000 | > 5000 | 18 | – | > 2600 | 1000 | 1000 | 5.2 | –
19 | COc1c(C(C)=O)ccc(F)c1CCNC(=O)Nc1ccc(Cl)cn1 | > 5000 | > 5000 | > 5000 | 819 | – | > 2700 | 12700 | 26200 | 224 | –
20 | O=C(Nc1ccc(Cl)cn1)NC1CC1c1c(F)ccc(O)c1Cl (stereo not drawn) | > 5000 | > 5000 | > 5000 | 110 | – | > 2700 | 4300 | 4100 | 135 | –
21 | CCOc1ccc(Cl)c(C2CC2NC(=O)Nc2ccc(Cl)cn2)c1F (stereo not drawn) | 780 | 104 | 139 | 9 | – | 237 | 21 | 52 | 1.3 | –
22 | CCOc1ccc(Cl)c(C2CC2NC(=O)Nc2ccc(C#N)cn2)c1F (stereo not drawn) | 400 | 200 | 53 | 4 | – | 192 | 20 | 27 | 2.7 | –
23 | CCOc1ccc(F)c(C2CC2NC(=O)Nc2ccc(C#N)cn2)c1Cl (stereo not drawn) | > 5000 | 270 | 234 | 8 | – | 183 | 130 | 200 | 4.3 | –
24 | O=C1Nc2ccc(Cl)cc2[C@@](C#CC2CC2)(C(F)(F)F)O1 [EFAVIRENZ] | – | – | – | – | 50 | – | – | – | – | –
25 | CCC(=O)c1ccc(F)c(C2CC2NC(=O)Nc2ccc(Br)cn2)c1O (stereo in doubt; 18) [listing 2 of 2 here] | – | – | – | – | – | 41 | 10 | 14 | 4.8 | 56
26 | CCOc1ccc(F)c(C2CC2NC(=O)Nc2ccc(Cl)cn2)c1F (stereo not drawn) | 544 | 163 | 816 | 31 | – | 473 | 14 | 81 | 1.6 | –
27 | CC(=O)c1ccc(F)c(C2CC2NC(=O)Nc2ccc(C#N)cn2)c1O (stereo not drawn) | 104 | 230 | 40 | 8 | – | 98 | 16 | 13 | 5.3 | –
28 | CC(=O)c1ccc(F)c(C2CC2NC(=O)Nc2ccc(Br)cn2)c1O (stereo not drawn) | 561 | 113 | 50 | 21 | – | 70 | 8 | 18 | 3.5 | –
29 | CCC(=O)c1ccc(F)c(C2CC2NC(=O)Nc2ccc(Cl)cn2)c1O (stereo in doubt; 20) [listing 2 of 2 here] | – | – | – | – | – | 77 | 4 | 14 | 2.7 | 80
